Key:
[1] = Protein binding by rapid equilibrium dialysis, rat plasma; settings: 1 µM
Experimental: The fraction of unbound YL-IPA08 in plasma and liver microsomes of rat and human, and brain homogenates of rat were determined utilizing Rapid Equilibrium Dialysis method ([Waters et al., 2008]). Rat brain homogenate was harvested in 4-fold volume (w/v) of PBS (pH 7.4). YL-IPA08 were spiked into fresh plasma, rat brain homogenate, liver microsomes (0.2 mg/ml protein) at concentration of 1 µM, and then dialyzed against […] on a shaker at 37°C for 4 h. To avoid the high non-specific binding of YL-IPA08, 0.01% Tween 80 was added in the incubation mixture. At the end of the incubation, protein was precipitated with acetonitrile (containing IS) and analyzed by LC-MS/MS. Phenacetin, quinidine, and warfarin were selected as positive control for the protein binding test.
The unbound fraction of YL-IPA08 in plasma or liver microsomes (ƒu,x) was calculated as shown in Eq. 2, and unbound fraction in the tissue homogenate (ƒu,b) was calculated according to Eq. 3. fu,x = Concbuffer chamber/Concplasma/liver microsomes chamber (2) fu,b = Concbuffer chamber/Concbrain homogenate chamber (3) The measured unbound fractions would be higher when a tissue is homogenized and diluted in buffer, the unbound fractions in an undiluted tissues (ƒu,brain) were calculated using Eq. 4 ([Kalvass and Maurer, 2002]). Undiluted fu,brain=1/D/((1/fu,brain homogenate)−1)+1/D (4) Where D represents the fold of dilution factor in brain homogenates. The free fraction of plasma and undiluted tissue is used in tissue-to-plasma exposure ratio calculation.

[2] = Transcellular transport experiment with Caco-2 cells; settings: human, Caco-2
Experimental: (§1) Caco-2 cell lines were cultured (ATCC, Manassas, VA, United States) as described previously ([Liu et al., 2014]). Briefly, the cells were cultured at 37°C in 5% CO2 at 90% humidity in DMEM high glucose medium containing 20% fetal bovine serum, 1% nonessential amino acids, 100 U/ml penicillin and 1% streptomycin. For the efflux studies, the cells were seeded onto polyethylene terephthalate Millicell® cell culture inserts (0.4 μm pore size, 6.5 mm diameter, Millipore Corporation, Billerica, MA, United States) at a density of 1.7 × 10^5 cells/ml. The culture medium was refreshed on the day after seeding, after which it was refreshed every other day and on the day before the transport experiment. The cells were cultured for 20–22 days after seeding and then evaluated by measuring the transepithelial electrical resistance (TEER) (Millicell ERS®, Millipore Corporation) before experiments. […] Transepithelial permeability studies for YL-IPA08 (10 μM) were conducted from apical to basolateral side (A-B) and basolateral to apical side (B-A) for 120 min 0.2% BSA was included in the receiver solution to avoid nonspecific binding. At 60, 90, and 120 min, half volume of solution from receiver side was withdrawn, and same volume of HBSS was immediately added. Obtained samples were precipitated by adding 4× volumes of acetonitrile containing IS and centrifuged. The supernatants were stored in −20°C until further analysis by LC-MS/MS.
(§2) The in vitro t1/2 in liver microsomal incubation was calculated from the semi-log plot of percentage remaining vs. incubation time and intrinsic clearance (Clint, ml/min/mg protein) was calculated as Eq. 1: CLint=0.693/in vitro t1/2×volume of incubation (μl)/amount of microsomal protein in incubation (mg) (1) ([Suzuki et al., 2003]).Apparent permeability was obtained according to the equation Papp = (dQ/dt)/(A × C0), where dQ/dt is the mass transport rate (determined from the slope of the amount transported vs. time plot), A is the surface area of the monolayer, and C0 is the initial concentration of YL-IPA08 in the donor chamber ([Suzuki et al., 2003]). The efflux ratio was calculated for each study using the following equation: […] = Papp(B–A)/Papp(A–B), where Papp(B–A) and Papp(A–B) represent apparent drug permeability in the B to A and A to B direction, respectively. An efflux ratio greater than 2 indicates net efflux.

Caco-2 cells = assay: as above; settings: for Concentration, A-B-A-90min / Concentration, A-B-B-90min: Caco-2, A→B; for Concentration, A-B-A-90min: apical (donor) side; for Concentration, A-B-B-90min: basolateral (receiver) side; for Concentration, B-A-A-90min / Concentration, B-A-B-90min: Caco-2, B→A; for Concentration, B-A-A-90min: apical (receiver) side; for Concentration, B-A-B-90min: basolateral (donor) side; for Concentration, DOA: Caco-2, apical donor at time 0; for Concentration, DOB: Caco-2, basolateral donor at time 0
Experimental: as §1, §2

Row | Protein biding (%) ([1]; Rat plasma, dialysis 4 h) | Papp A→B at 120 min, 10 μM [2] [×10⁻⁶ cm/s] | Papp B→A at 120 min, 10 μM [2] [×10⁻⁶ cm/s] | efflux ratio at 120 min, 10 μM [2] | Concentration, A-B-A-90min (Caco-2 cells) [µM] | Concentration, A-B-B-90min (Caco-2 cells) [µM] | Concentration, B-A-A-90min (Caco-2 cells) [µM] | Concentration, B-A-B-90min (Caco-2 cells) [µM] | Concentration, DOA (Caco-2 cells) [µM] | Concentration, DOB (Caco-2 cells) [µM] | Protein biding (%) ([1]; rat, 4 h) | SMILES
1 | 58.48 ± 2.26 | – | – | – | – | – | – | – | – | – | – | CCOc1ccc(NC(C)=O)cc1 [phenacetin, reference compound]
2 | – | 4.35 ± 2.06 | 2.78 ± 0.09 | 0.63 | 4.608 ± 0.43 | 0.079 ± 0.026 | 0.172 ± 0.019 | 7.267 ± 0.597 | 10.633 ± 2.369 | 10.367 ± 1.118 | – | CC(C)NCC(O)COc1cccc2ccccc12 (stereo not drawn) [Propranolol]
3 | – | – | – | – | – | – | – | – | – | – | 99.67 ± 0.08 | CC(=O)CC(c1ccccc1)c1c(O)c2ccccc2oc1=O (stereo not drawn) [warfarin, reference compound]
4 | – | 0.45 ± 0.17 | 2.63 ± 0.7 | 6.25 | 8.117 ± 0.473 | 0.009 ± 0.002 | 0.203 ± 0.027 | 8.867 ± 0.388 | 11.683 ± 3.499 | 12.667 ± 2.619 | – | C[C@H]1O[C@@H](O[C@H]2[C@@H](O)C[C@H](O[C@H]3[C@@H](O)C[C@H](O[C@H]4CC[C@@]5(C)[C@H](CC[C@@H]6[C@@H]5C[C@@H](O)[C@]5(C)[C@@H](C7=CC(=O)OC7)CC[C@]65O)C4)O[C@@H]3C)O[C@@H]2C)C[C@H](O)[C@@H]1O [Digoxin]
5 | 78.08 ± 4.49 | – | – | – | – | – | – | – | – | – | – | C=C[C@H]1C[N@@]2CC[C@H]1C[C@@H]2[C@@H](O)c1ccnc2ccc(OC)cc12 [quinidine, reference compound]
